Experimental data taken from PMC8486872, “A rational blueprint for the design of chemically-controlled protein switches” (Nature Communications, 2021).
Several values for one entry are separate records, joined by “and”; a condition that tells them apart may be missing. Equal values may be shown once.

System: Bcl-XL:LD3 complex (CDH-1)
Test: SPR drug competition assay, Bcl-XL:LD3 (CDH-1) with Drug-1
Assay type: binding
Details: Fig S10d
Method: Drug IC50s of disrupting CDH heterodimers were measured on a Biacore 8 K device. 4 µM of LD3 and its variants (LD3_v1-3) or LD6 were mixed with their respective drugs. […] Multiple-cycle injection of the protein-drug complex with different stoichiometry were performed to measure the decrease of maximal RUs (response units at 120 sec). Apparent IC50s were obtained using the inhibition versus response fitting models in prism software (Version 8.3.0).
Apparent IC50s of SPR drug competition assay were calculated using three-parameter nonlinear regression in GraphPad Prism (Version 8.3.0). Representative data of cellular assays are presented as individual values and mean values (bars). n = 3 refers to biological replicates. All IC50/EC50 values of cellular assays (CDH-TF, CDH-GEMS, AIR-TF and AIR-GEMS) reported were calculated using four-parameter nonlinear regression ± s.d. […]
Readouts from the
sensorgrams were extracted at the time point 120 s to calculate the IC50s using a three-parameter

CN(C)CC#Cc1ccc(OCCCc2sc(N3CCc4cccc(C(=O)Nc5nc6ccccc6s5)c4C3)nc2C(=O)O)c(F)c1 [Drug-1, A-1155463]
IC50 (Bcl-Xl:LD3, best-fit, inhibitor vs. response (three parameters)): 0.22 nM
logIC50 (Bcl-Xl:LD3, best-fit, three parameters, Drug-1 in nM): -0.658
Bcl-Xl:LD3 response (Drug-1 0.001 nM): 275.326 and 251.306 and 243.642
Bcl-Xl:LD3 response (Drug-1 0.005 nM): 242.985 and 229.287 and 224.833
Bcl-Xl:LD3 response (Drug-1 0.01 nM): 223.576 and 215.113 and 215.946
Bcl-Xl:LD3 response (Drug-1 0.05 nM): 225.211 and 226.402 and 224.55
Bcl-Xl:LD3 response (Drug-1 0.1 nM): 186.039 and 182.298 and 182.078
Bcl-Xl:LD3 response (Drug-1 0.5 nM): 123.883 and 120.417 and 119.693
Bcl-Xl:LD3 response (Drug-1 1 nM): 121.627 and 115.582 and 111.718
Bcl-Xl:LD3 response (Drug-1 5 nM): 122.215 and 115.477 and 118.457
Bcl-Xl:LD3 response (Drug-1 10 nM): 92.0281 and 92.2496 and 88.1833
Bcl-Xl:LD3 response (Drug-1 50 nM): 84.1354 and 86.416 and 84.392
Bcl-Xl:LD3 response (Drug-1 100 nM): 81.6073 and 77.884 and 79.2329
Bcl-Xl:LD3 response (Drug-1 500 nM): 65.1408 and 62.8874 and 62.5965
Bcl-Xl:LD3 response (Drug-1 1000 nM): 42.6601 and 38.7292 and 40.0074
